Experimental data: patent US20240109855A1, “ANTI-QUORUM SENSING, ANTI-BIOFILM, AND INFLAMMATION ATTENUATING COMPOUNDS, COMPOSITIONS, AND METHODS OF USING SAME” (priority 2021, published 2024)
“Also recorded” adds a separate entry of the source.

Legend:
[1] = test system: Chromobacterium violaceum (CV026); experiment: Quorum sensing inhibition test with bio-reporter CV026 (TLC overlay); assay type: cell-based; as to Degree of QSI of CV026: key: −: no inhibition; +: low inhibition; ++: medium inhibition; +++: strong inhibition
In short: (§1)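 Compounds (40 mM in acetonitrile, 20 μl) were spotted on TLC and overlaid with soft agar reporter cultures, incubated overnight at 30 °C. CV026 was in LB with 500 nM 3-oxo-C6 (purple pigment), and KYC55 was in AT medium with 5 nM 3-oxo-C8 and 60 μg/ml X-gal (blue). Inhibition zone diameter was measured.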

[2] = test system: Agrobacterium tumefaciens (KYC55); experiment: Quorum sensing inhibition test with bio-reporter KYC55 (TLC overlay); assay type: cell-based; as to Degree of QSI of KYC55: key: −: no inhibition; +: low inhibition; ++: medium inhibition; +++: strong inhibition
In short: as §1

[3] = test system: quorum sensing (CV026 and KYC55); experiment: Quorum sensing inhibition, overall statement over the bio-reporter bacteria; assay type: cell-based
In short: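 Compounds (20 μl of 40 mM acetonitrile stock) were spotted on TLC plates overlaid with reporter in soft agar: CV026 with 500 nM 3-oxo-C6 (purple pigment) or KYC55 with 5 nM 3-oxo-C8 and 60 μg/ml X-gal (blue pigment). After overnight incubation at 30 °C, the pigment-free inhibition zone was measured.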

[4] = test system: Bacillus subtilis; experiment: Diffusion discs test, Bacillus subtilis; assay type: cell-based; conditions: discs with 40 mM of compound in 20 μl solvent
Protocol: (§2) All derivatives were dissolved in acetonitrile to a final concentration of 40 mM. Twenty (20) μl were loaded onto Whatman filter paper discs and dried. Bacillus subtilis, Staphylococcus aureus, and Acinetobacter baumannii were grown in LB (Lenox) O.N. One hundred (100) μl from the starter culture was plated on LB agar (Miller) dishes. Streptococcus sobrinus, and Streptococcus mutans grown in Brain Heary Infusion (BHI, Himedia) O.N. were similarly plated on BHI agar dishes. Discs were laid and incubated O.N. in 37° C. and the diameter of inhibition of bacterial growth was measured.

[5] = test system: Staphylococcus aureus; experiment: Diffusion discs test, Staphylococcus aureus; assay type: cell-based; conditions: discs with 40 mM of compound in 20 μl solvent
Protocol: as §2

[6] = test system: Streptococcus sobrinus; experiment: Diffusion discs test, Streptococcus sobrinus; assay type: cell-based; conditions: discs with 40 mM of compound in 20 μl solvent
Protocol: as §2

[7] = test system: Streptococcus mutans; experiment: Diffusion discs test, Streptococcus mutans; assay type: cell-based; parameters: key: —: no activity; conditions: discs with 40 mM of compound in 20 μl solvent
Protocol: as §2

[8] = test system: PA01; experiment: Diffusion discs test, PA01; assay type: cell-based, P. aeruginosa; parameters: key: —: no activity; conditions: discs with 40 mM of compound in 20 μl solvent
[9] = test system: Acinetobacter baumannii; experiment: Diffusion discs test, Acinetobacter baumannii; assay type: cell-based; parameters: key: —: no activity; conditions: discs with 40 mM of compound in 20 μl solvent
Protocol: as §2

[10] = test system: gram-positive and gram-negative bacteria; experiment: Antibacterial activity, overall statement (diffusion discs test); assay type: cell-based
In short: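 Compounds in acetonitrile at 40 mM, 20 μl dried onto filter paper discs, laid on lawns of B. subtilis, S. aureus, A. baumannii (LB agar) or S. sobrinus, S. mutans (BHI agar) from overnight cultures. Incubated overnight at 37° C; inhibition zone diameter measured.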

[11] = test system: NF-kB; experiment: NF-kB-luciferase reporter gene assay in L428 cells; assay type: cell-based, human; conditions: Table 6 summary; also: key: +: active; −: inactive
Protocol: FIG. 7 includes a vertical bar graph showing a dose response of NF-kB activation according to an NF-kB reporter gene luciferase assay. L428 cells were stably transfected with the NF-kB luciferase reporter gene. The cells were incubated with the compounds at different concentrations for 2 hours. […] The results represent the percentage of NF-kB activation as compared to vehicle (DMSO) treated cells. All samples were normalized to protein concentration. Mean+SD, Two-way ANOVA and Tukey's multiple comparison test. 95% confidence interval (p-values *≤0.0332, **≤0.0021, ***≤0.0002).
L428 cells stable transfectants with the luciferase NF-kB-Luc reporter gene were generated previously described (Ozer et al., 2009), and were maintained in 500 μg/ml of G418 (G418 disulfate salt, Sigma-Aldrich). The cells (5×10^5 /well in triplicate) were incubated for 2 hrs. in 1 ml of medium containing the solvent (DMSO) or different concentrations of the molecules tested. Cells were then harvested, lysed, and monitored by a luciferase reporter assay kit (Promega) according to the manufacturer's instructions. Measurements were carried out using a luminometer (Promega, GLOMAX™ 20/20 Luminometer). Data were normalized to the protein concentration in each lysate as measured by the Bradford method (BioRad) and normalized to the control. Experiments were repeated at least three times.

[12] = in vitro; conditions: human, LC50
In short: (§3)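 30,000 cells/well exposed to coumaperine derivatives at varying concentrations or DMSO vehicle for 48 h at 37 °C, 5% CO2, then XTT added for 2 h. Absorbance at 450 nm minus 650 nm and blank, normalized to DMSO-treated cells (100% viability); triplicate, two independent tests, mean+SD.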

[13] = test system: L428 cells; experiment: in vitro
In short: as §3

[14] = test system: L428 cells; conditions: cited from earlier work
[15] = Table 1, coumaperine derivatives, 40 mM in ~20 μL acetonitrile dried on TLC plate, overnight, color intensity

## O=C(/C=C/C=C/c1ccccc1)N1CCCCC1 [CP-9, (2E,4E)-5-phenyl-1-(piperidin-1-yl)penta-2,4-dien-1-one]
[1]; [15]
  Degree of QSI of CV026: ++
[1]; running text
  QSI activity against CV026, in words: moderate
[2]; [15]
  Degree of QSI of KYC55: +
[2]; running text
  QSI activity against KYC55, in words: low
[3]; Table 6 summary
  QSI: +
[3]; running text
  QSI activity overall, in words: anti QS activity
[4]
  Bacillus subtilis, diameter of growth inhibition: 8 mm
[5]
  Staphylococcus aureus, diameter of growth inhibition: 9 mm
[6]
  Streptococcus sobrinus, diameter of growth inhibition: 9 mm
[7]
  Streptococcus mutans, diameter of growth inhibition: —
[8]
  PA01, diameter of growth inhibition: —
[9]
  Acinetobacter baumannii, diameter of growth inhibition: —
[10]; Table 6 summary
  Antibacterial: +
[10]; running text
  Antibacterial activity, in words: showed antibacterial activity; also recorded: inhibit bacterial growth of the three gram-positive bacteria; also recorded: some antibiotic activity
[11]
  Anti-inflammatory: +
[12]
  CC50 at 48 h: 24.7 µM
[13]
  Cytotoxic: +
[13]; human, 48 h
  CC50: 24.7 µM
[14]
  Cytotoxicity, previously reported: cytotoxic
